Data published in US10098878B2, “HIF-2α inhibitors for treating iron overload disorders” (The Board of Regents of the University of Texas System, priority 2014, dated 2018).
Like-named read-outs stand apart in the source and are kept apart here.

Tests used:
786-O-Hif-Luc cells = test: Luciferase Assay; type: cell-based; settings: read-out: Luciferase EC50
Procedure: A pool of infected cells were then selected against 2 μg/mL of puromycin (P8833, Sigma) for 10 days followed by limited dilution to select single clones.
Each concentration was tested in triplicate. After about 24 hours, luciferase activity was determined using ONE-Glo Luciferase Assay Reagent (E6110, Promega) following the manufacturer's recommended procedure. EC50 were calculated by using Dotmatics software.

[1] = target: T1, HIF-2α HIS TAG-PASB Domain (Homo sapiens, UniProt Q99814); test: HIF-2α Scintillation Proximity Assay (SPA); type: binding; settings: 100 nM HIF-2α HIS TAG-PASB Domain
T1 construct: 100 nM HIF-2α HIS TAG-PASB Domain
T1 sequence (Q99814 240-350 limits assumed): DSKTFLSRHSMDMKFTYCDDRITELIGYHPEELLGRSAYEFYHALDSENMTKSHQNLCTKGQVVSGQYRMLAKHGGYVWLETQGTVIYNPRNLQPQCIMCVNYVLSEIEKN
Procedure: The total assay volume was about 100 μL in the following configuration: 2 μL compound in 100% DMSO, 88 μL buffer with protein and probe and 10 μL of SPA beads. […] The percent inhibition was determined and IC50 values were calculated using the Dotmatics system based on the following equation: % inhibition=[(high control−sample)/(high control−low control)]×100.

[2] = 24 h, 786-O-Hif-Luc cells, about 24 hours
[3] = 150 nM Compound 211 probe, read-out: SPA IC50
[4] = 786-O-Hif-Luc cells, about 24 hours

Row | SMILES | EC50 (786-O-Hif-Luc cells; [2]) [µM] | IC50 [1, 3] [µM] | EC50 (786-O-Hif-Luc cells; 24 h) [µM] | also measured
1 | O=S1(=O)c2ccc(OCc3ccccc3)c(C(F)F)c2C(O)C1(F)F (stereo not shown) [Compound 175, 5-Benzyloxy-4-(difluoromethyl)-2,2-difluoro-1,1-dioxo-3H-benzothiophen-3-ol] | 0.51 | 0.565 | – | –
2 | N#Cc1cncc(Oc2ccc(S(N)(=O)=O)c3c2CC(F)(F)[C@H]3O)c1 [Compound 25, (S)-7-((5-Cyanopyridin-3-yl)oxy)-2,2-difluoro-3-hydroxy-2,3-dihydro-1H-indene-4-sulfonamide] | 1.1 | 17.6 | – | –
3 | N#Cc1cc(F)cc(Oc2ccc(S(=N)(=O)CF)c3c2CC(F)(F)[C@H]3O)c1 (single isomer, unassigned) [Compound 39] | – | 0.076 | – | EC50 (786-O-Hif-Luc cells; [4]): 0.255 µM
4 | N=S1(=O)c2ccc(Oc3cc(F)cc(F)c3)c(Br)c2C(O)C1(F)F (single isomer, unassigned) [Compound 141, 4-Bromo-5-(3,5-difluorophenoxy)-2,2-difluoro-3-hydroxy-1-imino-2,3-dihydro-1H-1λ^4-benzo[b]thiophene 1-oxide] | 0.544 | 4.1 | – | –
5 | COc1c(Oc2cc(F)cc(C#N)c2)ccc2c1C(O)C(F)(F)S2(=O)=O (stereo not shown) [Compound 197, 3-((2,2-Difluoro-3-hydroxy-4-methoxy-1,1-dioxido-2,3-dihydrobenzo[b]thiophen-5-yl)oxy)-5-fluorobenzonitrile] | 1.1 | 0.94 | – | –
6 | N#Cc1cc(F)cc(Oc2ccc(S(N)(=O)=O)c3c2C[C@@H](F)[C@H]3O)c1 [Compound 98, (2R,3S)-7-(3-cyano-5-fluoro-phenoxy)-2-fluoro-3-hydroxy-indane-4-sulfonamide] | 0.224 | 0.073 | – | –
7 | N#Cc1cc(F)cc(Oc2ccc3c(c2C(F)F)C(O)CS3(=O)=O)c1 (stereo not shown) [Compound 138, 3-((4-(Difluoromethyl)-3-hydroxy-1,1-dioxido-2,3-dihydrobenzo[b]thiophen-5-yl)oxy)-5-fluorobenzonitrile] | 1.43 | 0.7 | – | –
8 | CS(=O)(=O)c1ccc(Oc2cc(F)cc(C#N)c2)c2c1[C@H](O)C(F)(F)[C@H]2F [Compound 57, 3-fluoro-5-[(1S,3S)-2,2,3-trifluoro-1-hydroxy-7-methylsulfonyl-indan-4-yl]oxy-benzonitrile] | – | 0.72 | 0.779 | –
9 | N[C@@H]1c2c(ccc(Oc3cc(F)cc(F)c3)c2C(F)F)S(=O)(=O)C1(F)F [Compound 165, (R)-3-Amino-4-(difluoromethyl)-5-(3,5-difluorophenoxy)-2,2-difluoro-2,3-dihydrobenzo[b]thiophene 1,1-dioxide] | 0.057 | 0.033 | – | –
10 | CS(=O)(=O)c1ccc(Oc2cc(F)cc(C#N)c2)c2c1C(=O)C(F)(Cl)C2 (stereo not shown) [Compound 33, 3-((2-chloro-2-fluoro-7-(methylsulfonyl)-1-oxo-2,3-dihydro-1H-inden-4-yl)oxy)-5-fluorobenzonitrile] | 19.4 | 0.31 | – | –
11 | N#Cc1cc(F)cc(Oc2ccc(S(=O)(=O)C(F)(F)F)c3c2CC(F)(F)[C@H]3NCCO)c1 [Compound 55, 3-[(1S)-2,2-difluoro-1-(2-hydroxyethylamino)-7-(trifluoromethylsulfonyl)indan-4-yl]oxy-5-fluoro-benzonitrile] | 3.1 | 4.9 | – | –
12 | NC1c2c(ccc(Oc3cc(F)cc(F)c3)c2Br)S(=O)(=O)C1(F)F (stereo not shown) [Compound 140, 3-Amino-4-bromo-5-(3,5-difluorophenoxy)-2,2-difluoro-2,3-dihydrobenzo[b]thiophene 1,1-dioxide] | – | – | 1.7 | IC50 ([1]; SPA IC50, 150 nM Compound 211 probe): < 0.005 µM
13 | C[C@@H]1Cc2c(Oc3cc(F)cc(C#N)c3)ccc(S(C)(=O)=O)c2[C@@H]1O [Compound 65, 3-fluoro-5-(((1R,2R)-1-hydroxy-2-methyl-7-(methylsulfonyl)-2,3-dihydro-1H-inden-4-yl)oxy)benzonitrile] | 2.1 | 1.85 | – | –
14 | N#Cc1c(Oc2cccc(F)c2)ccc2c1[C@@H](O)CS2(=O)=O [Compound 186, (R)-5-(3-fluorophenoxy)-3-hydroxy-2,3-dihydrobenzo[b]thiophene-4-carbonitrile 1,1-dioxide] | 0.492 | 0.746 | – | –
15 | CS(=O)(=O)c1ccc(Oc2cc(F)cc(C#N)c2)c2c1[C@H](O)[C@H](F)[C@@H]2O [Compound 60, 3-fluoro-5-[(1S,2R,3R)-2-fluoro-1,3-dihydroxy-7-methylsulfonyl-indan-4-yl]oxy-benzonitrile] | 1.32 | 1.34 | – | –
16 | O=S(=O)(CF)c1ccc(Oc2cccc3sccc23)c2c1C(O)C(F)(F)C2 (stereo not shown) [Compound 22, 4-(Benzo[b]thiophen-4-yloxy)-2,2-difluoro-7-((fluoromethyl)sulfonyl)-2,3-dihydro-1H-inden-1-ol] | 0.512 | 0.23 | – | –
17 | [2H]C([2H])([2H])S(=O)(=O)c1ccc(Oc2cc(F)cc(C#N)c2)c2c1[C@]([2H])(O)C(F)(F)C2 [Compound 16, 3-[(1S)-1-Deuterio-2,2-difluoro-1-hydroxy-7-(trideuteriomethylsulfonyl)indan-4-yl]oxy-5-fluoro-benzonitrile] | – | – | 0.024 | –

Row | SMILES | EC50 (786-O-Hif-Luc cells; [2]) [µM] | IC50 [1, 3] [µM] | EC50 (786-O-Hif-Luc cells; 24 h) [µM] | also measured
18 | N#Cc1cncc(Oc2ccc(S(=O)(=O)C(F)(F)F)c3c2CC(F)(F)[C@H]3O)c1 [Compound 18, (S)-5-((2,2-Difluoro-1-hydroxy-7-((trifluoromethyl)sulfonyl)-2,3-dihydro-1H-inden-4-yl)oxy)nicotinonitrile] | – | – | 0.015 | –
19 | N#Cc1cc(F)cc(Oc2ccc3c(c2C(F)F)C(O)C(F)(F)S3(=O)=O)c1 (stereo not shown) [Compound 139, 3-((4-(Difluoromethyl)-2,2-difluoro-3-hydroxy-1,1-dioxido-2,3-dihydrobenzo[b]thiophen-5-yl)oxy)-5-fluorobenzonitrile] | – | – | – | EC50 (786-O-Hif-Luc cells; [4]): 0.004 µM
20 | CS(=O)(=O)c1ccc(Oc2cc(F)cc(C#N)c2)c2c1[C@H](N)C(F)(F)C2 [Compound 6, 3-[(1S)-1-Amino-2,2-difluoro-7-methylsulfonyl-indan-4-yl]oxy-5-fluoro-benzonitrile] | – | – | 0.244 | –
21 | [2H]C1(O)c2c(ccc(Oc3cc(F)cc(C#N)c3)c2C(F)F)S(=O)(=O)C1(F)F (stereo not shown) [Compound 150, 3-((4-(Difluoromethyl)-2,2-difluoro-3-hydroxy-1,1-dioxido-2,3-dihydrobenzo[b]thiophen-5-yl-3-d)oxy)-5-fluorobenzonitrile] | – | – | – | EC50 (786-O-Hif-Luc cells): 0.012 µM
22 | CS(=O)(=O)c1ccc(Oc2cc(F)cc(C#N)c2)c2c1[C@H](O)[C@H](F)[C@H]2F [Compound 58, 3-[(1S,2S,3S)-2,3-difluoro-1-hydroxy-7-methylsulfonyl-indan-4-yl]oxy-5-fluoro-benzonitrile] | 1.02 | – | – | –
23 | [2H][C@]1(O)c2c(S(C)(=O)=O)ccc(Oc3cc(F)cc(C#N)c3)c2CC1(F)F [Compound 23, (S)-3-((2,2-Difluoro-1-hydroxy-7-(methylsulfonyl)-2,3-dihydro-1H-inden-4-yl-1-d)oxy)-5-fluorobenzonitrile] | – | – | 0.024 | –
24 | N#Cc1cc(F)cc(Oc2ccc3c(c2C(F)F)[C@H](O)C(F)(F)S3(=O)=O)c1 (single isomer, unassigned) [Compound 144] | – | – | – | EC50 (786-O-Hif-Luc cells): 0.019 µM
25 | CS(=O)(=O)c1ccc(Oc2cc(F)cc(C#N)c2)c2c1[C@H](O)[C@@H](F)C2 [Compound 35, 3-fluoro-5-(((1S,2S)-2-fluoro-1-hydroxy-7-(methylsulfonyl)-2,3-dihydro-1H-inden-4-yl)oxy)benzonitrile] | – | – | 0.473 | –
26 | N#Cc1cc(F)cc(Oc2ccc(S(N)(=O)=O)c3c2[C@@H](F)[C@@H](F)[C@H]3O)c1 [Compound 100, (1R,2S,3S)-7-(3-cyano-5-fluoro-phenoxy)-1,2-difluoro-3-hydroxy-indane-4-sulfonamide] | 0.067 | – | – | –
27 | N#Cc1cc(F)cc(Oc2ccc(S(=O)(=O)C(F)(F)F)c3c2CC(F)(F)[C@H]3N)c1 [Compound 54, 3-[(1S)-1-amino-2,2-difluoro-7-(trifluoromethylsulfonyl)indan-4-yl]oxy-5-fluoro-benzonitrile] | – | – | 0.17 | –
28 | O=S(=O)(c1ccc(Oc2ccc(F)c3[nH]ncc23)c2c1C(O)C(F)(F)C2)C(F)(F)F (stereo not shown) [Compound 21, 2,2-Difluoro-4-((7-fluoro-1H-indazol-4-yl)oxy)-7-((trifluoromethyl)sulfonyl)-2,3-dihydro-1H-inden-1-ol] | 0.137 | – | – | –
29 | CS(=O)(=O)c1ccc(Oc2cc(F)cc(C#N)c2)c2c1[C@H](O)C(F)(F)C2 [Compound 5, (S)-3-((2,2-Difluoro-1-hydroxy-7-(methylsulfonyl)-2,3-dihydro-1H-inden-4-yl)oxy)-5-fluorobenzonitrile] | – | – | 0.024 | –
30 | N#Cc1cc(F)cc(Oc2ccc(S(=O)(=O)C(F)F)c3c2CC(F)(F)[C@H]3O)c1 [Compound 1, 3-[(1S)-7-(difluoromethylsulfonyl)-2,2-difluoro-1-hydroxy-indan-4-yl]oxy-5-fluoro-benzonitrile] | 0.007 | – | – | –
31 | O=S1(=O)CC(O)c2c1ccc(Oc1cc(F)cc(Cl)c1)c2Br (stereo not shown) [Compound 116, 4-Bromo-5-(3-chloro-5-fluorophenoxy)-3-hydroxy-2,3-dihydrobenzo[b]thiophene 1,1-dioxide] | – | – | – | EC50 (786-O-Hif-Luc cells): 4.8 µM
32 | N#Cc1cc(F)cc(Oc2ccc(S(N)(=O)=O)c3c2[C@H](F)C(F)(F)[C@H]3O)c1 [Compound 103, (1S,3S)-7-(3-cyano-5-fluoro-phenoxy)-1,2,2-trifluoro-3-hydroxy-indane-4-sulfonamide] | – | – | 0.253 | –
33 | O=[N+]([O-])c1ccc(Oc2cc(F)cc(Cl)c2)c2c1C(O)CC2 (stereo not shown) [Compound 27, 4-(3-Chloro-5-fluorophenoxy)-7-nitro-2,3-dihydro-1H-inden-1-ol] | 1.39 | – | – | –
